Where a name gives a salt, the structure may show the parent alone.
Test: Concentration required to inhibit the enzyme cathepsin

CCC[C@H](NC(=O)[C@H](Cc1ccc(OC)cc1)NC(=O)CC(C)C)C(=O)N[C@@H](CC1CCCCC1)C(=O)C(F)(F)CN [(S)-2-[(S)-3-(4-Methoxy-phenyl)-2-(3-methyl-butyrylamino)-propionylamino]-pentanoic acid ((S)-4-amino-1-cyclohexylmethyl-3,3-difluoro-2-oxo-butyl)-amide; hydrochloride]
Ki: 4 µM

— BindingDB's records for doi:10.1016/S0960-894X(00)80383-2 (1992)
